This note sets out measurements from ChEMBL document CHEMBL1201862, “PubChem BioAssay data set” (2004).

What all share (assay): inhibition of tumour cell growth, NCI panel, 48 h
Assay [1] has as its system HCT-15.
Assay [2] concerns HOP-92.
Assay [3] has as its system Hs-578T.
Assay [4] relates to IGROV-1.
In assay [5] the test system is KM12.
For assay [6], the system named is NCI-H522.
The subject of assay [7] is NCI/ADR-RES.
For assay [8], the system named is OVCAR-8.
For assay [9], the system named is PC-3.
The subject of assay [10] is RPMI-8226.
For assay [11], the system named is RXF 393.
For assay [12], the system named is SF-268.
In assay [13] the test system is SK-MEL-28.
Assay [14] has as its system SK-OV-3.
Assay [15] deals with SNB-19.
Assay [16] deals with T47D.
Assay [17] deals with UO-31.

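Where inhibition never reached the appropriate level, the endpoint shown equals the highest concentration tested. Otherwise, values were interpolated linearly from a five-concentration, 48-hour dose response in 96-well plates. GI50 marks 50% less growth.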 Active and inactive are the calls of the source. No stated cut-off is given here; in the data, active = GI50 up to about 1.1 µM and inactive = higher.

On to `CN(C)c1ccc2nc3c(C(=O)O)cc(O)c(O)c3[o+]c2c1`, for which the GI50 is 37.5 µM in assay [1]; 67 µM (inactive) in [2]; 68.4 µM (inactive) in assay [3]; 92.3 µM (inactive) in [4]; 26.9 µM (inactive) in assay [5]; 5.48 µM (inactive) in assay [6]. Also, the GI50 was 28.7 µM (inactive) in [7]; 41 µM (inactive) in assay [8]; 36.5 µM (inactive) in [9]; 18.8 µM (inactive) in [10]; 24.6 µM (inactive) in [11]; 41.5 µM (inactive) in assay [12]. The GI50 in assay [13] was 43 µM (inactive); in assay [14], 25 µM (inactive); in assay [15], 28.7 µM (inactive); in assay [16], 15.1 µM (inactive); in assay [17], 28.6 µM (inactive).

`Cc1c(C=C(C#N)C#N)c(=O)n(C)c(=O)n1C`: the GI50 in assay [1] was more than 100 µM; in assay [2], > 100 µM (inactive); in [3], > 100 µM (inactive); in [4], > 100 µM (inactive); in assay [5], > 100 µM (inactive); in assay [6] it was 31.4 µM (inactive). In addition, the GI50 was > 100 µM (inactive) in [7]; > 100 µM (inactive) in [8]; > 100 µM (inactive) in [9]; 72.8 µM (inactive) in assay [10]; > 100 µM (inactive) in assay [11]; > 100 µM (inactive) in [12]. The GI50 in assay [13], in assay [14], in assay [15], in [16] and in assay [17] was > 100 µM (inactive) in each case.

Regarding `CCOC(=O)c1ccc2nc(NC(=O)COC(=O)CSc3nc(C)cc(C)n3)sc2c1`, the GI50 in [1] is 46.6 µM; in assay [2], 24.8 µM (inactive); in assay [3], 36 µM (inactive); in assay [4], 27 µM (inactive); in assay [5], > 100 µM (inactive); in [6] it was 64 µM (inactive). In addition, the GI50 was 48.4 µM (inactive) in assay [7]; 57.9 µM (inactive) in [8]; 40.2 µM (inactive) in assay [9]; 53 µM (inactive) in assay [10]; 30.3 µM (inactive) in assay [11]; 67.8 µM (inactive) in assay [12]. The GI50 in assay [13] is 97.3 µM (inactive); in assay [14], 32.5 µM (inactive); in assay [15] it was 37.8 µM (inactive); in assay [16], 16.7 µM (inactive); in [17], 13.9 µM (inactive).

`COc1ccc(C2=NNC(=O)c3ccccc3N2c2nc(-c3cccs3)nc3ccc(Br)cc23)cc1`: the GI50 in [1] was 34.2 µM; in [2], > 100 µM (inactive); in assay [3], 35.1 µM (inactive); in [4] it was 63.5 µM (inactive); in assay [5], 61.5 µM (inactive); in assay [6], 64.9 µM (inactive). Also, the GI50 in [7] was 19.1 µM (inactive); in assay [8], 53.5 µM (inactive); in [9] it was 24.7 µM (inactive); in [10], 52.2 µM (inactive); in [11] it was 68.4 µM (inactive); in [12], 31 µM (inactive). Also, the GI50 in assay [13] was > 100 µM (inactive); in assay [14], 53.7 µM (inactive); in assay [15], 30.1 µM (inactive); in assay [16] it was 23.7 µM (inactive); in assay [17] it was > 100 µM (inactive).

Consider `O=S(=O)(O)c1ccc2c(/N=N/c3cccc4ccccc34)c(O)ccc2c1`, for which the GI50 is more than 100 µM in assay [1]; > 100 µM (inactive) in [2]; > 100 µM (inactive) in assay [3]; > 100 µM (inactive) in [4]; > 100 µM (inactive) in [5]; > 100 µM (inactive) in [6]. The GI50 in [7], in assay [8], in [9], in [10], in assay [11] and in assay [12] was > 100 µM (inactive) each time. Moreover, the GI50 in assay [13] was > 100 µM (inactive); in [14], > 100 µM (inactive); in assay [15], 74.6 µM (inactive); in assay [16], > 100 µM (inactive); in assay [17], > 100 µM (inactive).
